The values that follow are results of earlier work, collected in patent US11596597B2, “Depot formulation” (Cipla Limited, priority 2018, dated 2023).

The conditions of this data set: stated in words, no test described.

With “7,8,9,10-tetrahydro-6,10-methano-6H-pyrazino [2,3-h] [3]-benzazepine, (2R, 3R)-2,3-dihydroxybutanedioate [Varenicline salt]”, the solubility in water result is reported as “freely soluble”.
In the case of `c1cnc2cc3c(cc2n1)[C@@H]1CNC[C@H]3C1` [varenicline base], the solubility in water result is recorded as “practically insoluble”.
